According to publication PMC7948737, “Structures and mechanism of human glycosyltransferase β1,3-N-acetylglucosaminyltransferase 2 (B3GNT2), an important player in immune homeostasis” (The Journal of Biological Chemistry, 2020):

Experiments:
[1] = target: T1, β1,3-N-acetylglucosaminyltransferase 2 (B3GNT2) (Homo sapiens, UniProt Q9NY97); experiment: crystal structure ([…] Å, soak); binary-complex dissociation constant from UDP-Glo kinetics; assay type: biochemical
T1 construct: luminal domain, Lys45-Cys397 (crystal); Lys29-Cys397 (kinetics)
T1 sequence (Q9NY97 29-397): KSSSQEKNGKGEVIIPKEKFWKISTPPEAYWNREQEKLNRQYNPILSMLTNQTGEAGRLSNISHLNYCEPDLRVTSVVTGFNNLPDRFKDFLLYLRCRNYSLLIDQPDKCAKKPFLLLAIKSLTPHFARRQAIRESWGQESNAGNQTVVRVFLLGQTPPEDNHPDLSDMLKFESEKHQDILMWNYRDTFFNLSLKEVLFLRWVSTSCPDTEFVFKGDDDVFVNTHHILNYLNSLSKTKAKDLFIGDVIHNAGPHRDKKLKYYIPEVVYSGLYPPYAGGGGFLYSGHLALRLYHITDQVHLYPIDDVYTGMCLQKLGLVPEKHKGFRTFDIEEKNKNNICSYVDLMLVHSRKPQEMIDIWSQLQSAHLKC

[2] = target: T2, β1,3-N-acetylglucosaminyltransferase 2 (B3GNT2) (Homo sapiens, UniProt Q9NY97); experiment: crystal structure ([…] Å, soak) and SPR steady-state affinity; assay type: binding
T2 construct: luminal domain, Lys45-Cys397 (crystal)
T2 sequence (Q9NY97 45-397): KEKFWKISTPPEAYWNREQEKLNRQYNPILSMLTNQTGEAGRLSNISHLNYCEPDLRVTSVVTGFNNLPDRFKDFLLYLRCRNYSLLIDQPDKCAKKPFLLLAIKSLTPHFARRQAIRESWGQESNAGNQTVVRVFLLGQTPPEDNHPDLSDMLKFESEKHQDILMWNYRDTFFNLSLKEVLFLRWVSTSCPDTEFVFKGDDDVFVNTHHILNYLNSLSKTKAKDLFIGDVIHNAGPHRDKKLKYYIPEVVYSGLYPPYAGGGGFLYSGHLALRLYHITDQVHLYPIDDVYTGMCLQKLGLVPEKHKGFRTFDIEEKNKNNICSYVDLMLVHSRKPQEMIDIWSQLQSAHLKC

[3] = target: T2, β1,3-N-acetylglucosaminyltransferase 2 (B3GNT2); experiment: crystal structure ([…] Å) and SPR steady-state affinity; assay type: binding
[4] = target: human B3GNT2 luminal domain (construct of the analytical size exclusion chromatography, limits not told) (human); experiment: SEC; analytical size exclusion chromatography, Superdex 200 10/300, 20 mM Hepes-NaOH pH 7.5 with 150 mM NaCl (buffer C) or 250 mM NaCl, 50 mM imidazole, 1 mM MgCl2, 0.5 mM DTT (buffer D); Bio-Rad molecular weight standards
[5] = target: the molecule itself; experiment: crystal structure; sitting/hanging-drop vapor diffusion at 4 °C, 24% PEG1500, 20% glycerol; apo, soaked or co-crystallised with UDP, UDP-GlcNAc, LacNAc; dimer related by crystallographic symmetry

With `CC(=O)N[C@H]1C(O)O[C@H](CO)[C@@H](O[C@@H]2O[C@H](CO)[C@H](O)[C@H](O)[C@H]2O)[C@@H]1O` (stereo partly drawn) [LacNAc] the Kd [1] was 8990 ± 1750 µM.

`CC(=O)N[C@H]1[C@@H](OP(=O)(O)OP(=O)(O)OC[C@H]2O[C@@H](n3ccc(=O)[nH]c3=O)[C@H](O)[C@@H]2O)O[C@H](CO)[C@@H](O)[C@@H]1O` [UDP-GlcNAc] showed a Kd [2] of ~140 µM.

Work on `O=c1ccn([C@@H]2O[C@H](COP(=O)(O)OP(=O)(O)O)[C@@H](O)[C@H]2O)c(=O)[nH]1` [UDP] yielded a Kd [3] of ~260 µM.

For “human B3GNT2 luminal domain (construct of the analytical size exclusion chromatography, limits not told) (domain or fragment)”, the stoichiometry N [4] was 2.

B1: human B3GNT2 luminal domain (Ser31–Cys397) (domain or fragment, UniProt Q9NY97 31-397, looked up)
chain: SSQEKNGKGEVIIPKEKFWKISTPPEAYWNREQEKLNRQYNPILSMLTNQTGEAGRLSNISHLNYCEPDLRVTSVVTGFNNLPDRFKDFLLYLRCRNYSLLIDQPDKCAKKPFLLLAIKSLTPHFARRQAIRESWGQESNAGNQTVVRVFLLGQTPPEDNHPDLSDMLKFESEKHQDILMWNYRDTFFNLSLKEVLFLRWVSTSCPDTEFVFKGDDDVFVNTHHILNYLNSLSKTKAKDLFIGDVIHNAGPHRDKKLKYYIPEVVYSGLYPPYAGGGGFLYSGHLALRLYHITDQVHLYPIDDVYTGMCLQKLGLVPEKHKGFRTFDIEEKNKNNICSYVDLMLVHSRKPQEMIDIWSQLQSAHLKC
modifications: N-glycans assigned at Asn127, Asn173 and Asn219
notes: human B3GNT2 (β-1,3-N-acetylglucosaminyltransferase 2), UniProt Q9NY97, luminal domain, residues Ser31–Cys397; Expressed with an N-terminal gp64 secretion signal peptide; 8×His tag cleaved by TEV protease; Used for the iodide derivative structure (SAD phasing, 2.50 Å); also called B3GNT2 Ser31-Cys397; iodide derivative; source: sf9 cells (baculovirus), secreted into medium, purified (Ni-NTA, size …)
B1: binds [5].

B2: human B3GNT2 luminal domain (Lys45–Cys397) (domain or fragment, UniProt Q9NY97 45-397, looked up)
chain: T2 sequence (Q9NY97 45-397)
modifications: N-glycans assigned at Asn127, Asn173 and Asn219
notes: human B3GNT2 (β-1,3-N-acetylglucosaminyltransferase 2), UniProt Q9NY97, luminal domain, residues Lys45–Cys397; Expressed with an N-terminal gp64 secretion signal peptide; 8×His tag cleaved by TEV protease; Used for all structures except the iodide derivative; also called B3GNT2 Lys45-Cys397; B3GNT2_apo; source: sf9 cells (baculovirus), secreted into medium, purified (Ni-NTA, size exclusion …)
B2: binds [5].
